Assay results published in patent publication US11479580B2, “Polypeptide expressed in the stratum corneum and use thereof” (CENTRE NATIONAL DE LA RECHERCHE SCIENTIFIQUE—CNRS, priority 2010, dated 2022).

Tests used:
[1] = test system: transglutaminases present in the granular layer of the human epidermis; assay: In situ binding assay of biotinylated polypeptides on cryosections of human abdominal skin; format: biochemical; details: 100 μM; for marking of the contour of the granular keratinocytes (polypeptide bound to cornified envelopes): 5 mM CaCl2, 2 h at room temperature, confocal microscope; for marking of the granular keratinocytes, negative control: 100 mM EDTA, absence of calcium
Experimental: To determine what region of the LCE6A protein is necessary for binding by the transglutaminases, the applicant arranged for the company MilleGen to synthesize various polypeptides, biotinylated at their N-terminal end, with a length of 9 to 13 amino acids, corresponding to different regions of the amino acid sequence of LCE6A.
These polypeptides were used in binding assays in situ. Cryosections of human abdominal skin, saturated by incubation in the presence of bovine albumin at 1% in PBS for 30 minutes at room temperature, were brought into contact with 100 mM Tris (pH 7.4) containing 100 μM of biotinylated polypeptide and 5 mM of CaCl2. After incubation for 2 h at room temperature, the reaction is stopped by adding EDTA at 25 mM for 5 minutes. The sections are then incubated in PBS containing 1% of SDS to destroy the noncovalent bonds.
The presence of biotinylated polypeptides bound to the cornified envelopes by the transglutaminases that are present and active in the tissue is detected by incubation of the sections with streptavidin-AlexaFluor555 at 5 μg/ml (Invitrogen) and visualization in the confocal microscope.
A positive control is performed in a similar experiment but by incubating the sections with 100 μM of cadaverine coupled to AlexaFluor555 (Invitrogen) instead of the polypeptides. For the negative controls, the cryosections are incubated with each biotinylated polypeptide or with cadaverine coupled to AlexaFluor555 but incubation is carried out in the presence of 100 mM of EDTA and in the absence of calcium.

[2] = test system: endogenous transglutaminase; assay: In vitro crosslinking binding assay with short peptide analogues of LCE6A fragments on human skin cryosections; format: biochemical; details: for labelling of the contour of the granular keratinocytes (peptide crosslinked to cornified envelopes) / labelling of the granular keratinocytes, negative control: 100 μM; for labelling of the contour of the granular keratinocytes (peptide crosslinked to cornified envelopes): 5 mM CaCl2, 2 h at room temperature, fluorescence microscope; for labelling of the granular keratinocytes, negative control: in the presence of EDTA, absence of calcium
Experimental: Protocol: The following short peptides derived from the amino acid sequences PEVQKP of LCE6A (amino-acids 49 to 54 of SEQ ID NO:2), which sequences meet the criteria defined above and are biotinylated at their amino-terminus, were synthesized: PGVQKP (SEQ ID NO: 7), PEGQKP (SEQ ID NO: 8), GEVQKP (SEQ ID No: 9), PEVQKG (SEQ ID No: 10).
These peptides were used at a concentration of 100 μM in in situ binding assays. Cryosections of human abdominal skin, saturated by incubation in the presence of bovine albumin at 1% in PBS for 30 minutes at room temperature, were brought into contact with 100 mM Tris (pH 7.4) containing 100 μM of biotinylated polypeptide and 5 mM of CaCl2). After incubation for 2 h at room temperature, the reaction was stopped by adding EDTA at 25 mM for 20 minutes. The sections were then incubated in PBS containing 1% of SDS to destroy the noncovalent bonds. The presence of biotinylated polypeptides bound to the cornified envelopes by the transglutaminases that are present and active in the tissue was detected by incubation of the sections with streptavidin-AlexaFluor555 at 5 μg/ml (Invitrogen) and visualization in the fluorescence microscope. A positive control was performed in a similar experiment but by incubating the sections with 100 μM of the peptide PEVQKP of LCE6A (amino-acids 49 to 54 of SEQ ID NO: 2). For the negative control, the cryosections were incubated with each biotinylated polypeptide but incubation was carried out in the presence of 100 mM of EDTA and in the absence of calcium.

| Substance | marking of the contour of the granular keratinocytes (polypeptide bound to cornified envelopes) [1] | marking of the granular keratinocytes, negative control [1] | other results |
| --- | --- | --- | --- |
| EVAKPRRARQALR (Mutated peptide of SEQ ID NO 5) [reference compound] | does not give any pericellular marking | – | – |
| MSQAKQQSW (Mutated peptide of SEQ ID NO 3) [reference compound] | does not give any pericellular marking | – | – |
| PEVQKG (Designed peptide based on homology to amino acid residue 49 to 54 from Protein LCE6A) | – | – | ability to bind cornified envelopes (conclusion) [2]: possesses the ability to bind cornified envelopes; labelling of the contour of the granular keratinocytes (peptide crosslinked to cornified envelopes) [2]: strong labelling of the contour of the granular keratinocytes; labelling of the granular keratinocytes, negative control [2]: Absence of labelling |
| PEVQKP (fragment) | – | – | labelling of the contour of the granular keratinocytes (peptide crosslinked to cornified envelopes) [2]: labelling of the contour of the granular keratinocytes; labelling of the granular keratinocytes, negative control [2]: Absence of labelling |
| RPAPPPISGGGYRAR (Control peptide of SEQ ID NO 19) [reference compound] | does not give any pericellular marking | – | – |
| SEQ ID NO: 3: polypeptide fragment of LCE6A, 9 to 13 amino acids, sequence not printed in the text (MSQQKQQSW; Designed peptide based on homology to amino acid residue 1 to 9 from Protein LCE6A) | – | no marking is obtained | – |
| SEQ ID NO: 4: polypeptide fragment of LCE6A, 9 to 13 amino acids, sequence not printed in the text (SSQRPEVQKPR; Designed peptide based on homology to amino acid residue 45 to 55 from Protein LCE6A) | – | no marking is obtained | – |
| SEQ ID NO: 5: polypeptide fragment of LCE6A, 9 to 13 amino acids, sequence not printed in the text (EVQKPRRARQKLR; Designed peptide based on homology to amino acid residue 50 to 62 from Protein LCE6A) | – | no marking is obtained | – |
